Results reported in patent US6995148B2, “Adenosine cyclic ketals: novel adenosine analogues for pharmacotherapy” (University of Pittsburgh, priority 2001, dated 2006).

Key:
[1] = system: A2A receptors; details: cited from earlier work
[2] = system: anesthetized rat; experiment: Hemodynamic effects (MABP and heart rate) of intravenous bolus in anesthetized rat; type: in vivo; details: bolus injection of 0.2 mg/kg
Experimental: Preliminary experiments were conducted to evaluate the hemodynamic effects of nonamethonium ACK. Adult male Sprague-Dawley rats utilized in these studies were purchased from Charles River Laboratories (Wilmington, Mass.) and maintained in the University of Pittsburgh Animal Facility. Rats were provided free access to Prolab Isopro RMH 3000 rodent diet (PMI Nutritional Intl., Richmond, Ind.) a nd tap water. The rats weighed approximately 300 grams at the time of study.
Rats were anesthetized with Inactin (100 mg/kg, intraperitoneally or i.p.) and placed on a Deltaphase Isothermal Pad (Braintree Scientific, Inc.; Braintree, Mass.). Body temperature was monitored with a digital rectal probe thermometer (Physioltemp Instruments, Inc.; Clifton, N.J.) and maintained at 37° C. by adjusting a heat lamp above the animal. The trachea was cannulated with polyethylene (PE)- 240 to maintain airway patency, a PE-50 catheter was inserted into the left jugular vein and an intravenous infusion of 0.9% saline was initiated at 80 μl/min. A left carotid artery catheter (PE-50) was inserted and was connected to a digital blood pressure analyzer (Micro-Med; Louisville, Ky.) for continuous measurement of mean arterial blood pressure (MABP) and heart rate. The digital blood pressure analyzer was set to time-average MABP and heart rate at one-minute (slow speed) or two-second (high speed) intervals.
After a 30 minute post-operation rest period, the rats received bolus injections of either adenosine or nonamethonium ACK. Some rats were pretreated with a bolus of 1,3-dipropyl-p-sulfophenylxanthine (DPSPX, a well-characterized adenosine receptor antagonist) followed by a constant rate infusion of DPSPX at 0.15 mg/80 μl/min. It has previously been shown that this dosing regimen with DPSPX effectively blocks adenosine receptors in the rat in vivo.

[3] = system: patients with acute anterior myocardial infarction; details: three-hour intravenous infusion; cited from earlier work

Row | Compound | affinity for A2A receptors [1] | time to recovery of MABP [2] | time to recovery of heart rate [2] | reduction of MABP ([2]; FIG. 2A) [mm Hg] | reduction of heart rate ([2]; FIG. 2B) [beats per minute] | reduction of infarct size [3] [%]
1 | CCNC(=O)[C@H]1O[C@@H](n2cnc3c(N)nc(NCCc4ccc(CCC(=O)O)cc4)nc32)[C@H](O)[C@@H]1O [CGS 21680, 2-[4-[(2-carboxyethyl)phenyl]ethylamino]-5′-N-ethylcarboxamidoadenosine] | high affinity |  |  |  |  | 
2 | Nc1ncnc2c1ncn2[C@@H]1O[C@H](CO)[C@@H](O)[C@H]1O [adenosine] |  | approximately 500 seconds | approximately 100 seconds | 76 | 158 | 66
